Where “and” joins values, the source holds several entries; their conditions need not be identical. Equal values may be shown once.
Tested on: Rats
Test: Conditioned avoidance behavior in rats
Assay type: in vivo, rat
Source text: Conditioned Avoidance Behavior in Rats:
In a conditioned avoidance test, animals learn to respond during a conditioned stimulus in order to avoid mild shock presentation. A response during the conditioned stimulus is termed an avoidance response, a response during shock is termed an escape response; a response failure is when the animal fails to respond during either the conditioned stimulus or the shock presentation and is indicative of motor impairment. […] Antipsychotic drugs decrease the percentage of avoidance responses without interfering with the ability of the animal to respond since the animals do emit escape responses. The percentage of response failures is considered a measure of motor impairment.
Rats were required to press a response lever in an experimental chamber in order to avoid or escape foot-shock. Each experimental session consisted of 50 trials. During each trial, the chamber was illuminated and a tone presented for a maximum of 10 sec. A response during the tone immediately terminated the tone and the houselight, ending the trial. In the absence of a response during the tone alone, tone+foot-shock (2.0 mA) was presented for a maximum of 10 sec. A response during shock presentation immediately terminated the shock, the tone and the houselights ending the trial.
If the effects are simply additive the results will be additive. If the effects of are synergistic, then the dose of second component required to produce full efficacy will be decreased.

[1] = first component dose 0.16 in combination with Xanomeline dose 10
[2] = first component dose 0.32 in combination with Xanomeline dose 10
[3] = first component dose 0.625 in combination with Xanomeline dose 10
[4] = first component dose 1.25 in combination with Xanomeline dose 10
[5] = first component dose 2.5 in combination with Xanomeline dose 10
[6] = first component dose 0.01 in combination with Xanomeline dose 10
[7] = first component dose 0.03 in combination with Xanomeline dose 10
[8] = first component dose 0.1 in combination with Xanomeline dose 10
[9] = first component dose 0.3 in combination with Xanomeline dose 10
[10] = first component dose 0.001 in combination with Xanomeline dose 10
[11] = first component dose 0.003 in combination with Xanomeline dose 10
[12] = given alone, dose 0.03 (dose unit not given)
[13] = Xanomeline dose 10 with first component dose 0 (combination series)

CN(C)CCCN1c2ccccc2Sc2ccc(Cl)cc21 [Chlorpromazine]
% Avoidance Responses ± SEM [1]: 56 ± 11% | % Response Failures ± SEM [1]: 1 ± 1% | % Avoidance Responses ± SEM [2]: 46 ± 22% | % Response Failures ± SEM [2]: 19 ± 19% | % Avoidance Responses ± SEM [3]: 30 ± 17% | % Response Failures ± SEM [3]: 0 ± 0% | % Avoidance Responses ± SEM [4]: 20 ± 10% | % Response Failures ± SEM [4]: 8 ± 7% | % Avoidance Responses ± SEM [5]: 22 ± 7% | % Response Failures ± SEM [5]: 1 ± 0% | % Avoidance Responses ± SEM (given alone, dose 1.25): 99 ± 1% | % Response Failures ± SEM (given alone, dose 1.25): 0 ± 0% | % Avoidance Responses ± SEM (given alone, dose 2.5): 96 ± 4% | % Response Failures ± SEM (given alone, dose 2.5): 0 ± 0% | % Avoidance Responses ± SEM (given alone, dose 5): 27 ± 12% | % Response Failures ± SEM (given alone, dose 5): 7 ± 5% | % Avoidance Responses ± SEM (given alone, dose 10): 10 ± 4% | % Response Failures ± SEM (given alone, dose 10): 16 ± 8%

OCCN1CCN(CCCN2c3ccccc3Sc3ccc(C(F)(F)F)cc32)CC1 [Fluphenazine]
% Avoidance Responses ± SEM [6]: 77 ± 12% | % Response Failures ± SEM [6]: 1 ± 0% | % Avoidance Responses ± SEM [7]: 52 ± 12% | % Response Failures ± SEM [7]: 3 ± 2% | % Avoidance Responses ± SEM [8]: 66 ± 11% | % Response Failures ± SEM [8]: 0 ± 0% | % Avoidance Responses ± SEM [9]: 33 ± 16% | % Response Failures ± SEM [9]: 6 ± 6% | % Avoidance Responses ± SEM (given alone, dose 0.1): 100 ± 0% | % Response Failures ± SEM (given alone, dose 0.1): 0 ± 0% | % Avoidance Responses ± SEM (given alone, dose 0.3): 67 ± 9% | % Response Failures ± SEM (given alone, dose 0.3): 2 ± 1% | % Avoidance Responses ± SEM (given alone, dose 1): 33 ± 6% | % Response Failures ± SEM (given alone, dose 1): 28 ± 9%

O=C(CCCN1CCC(O)(c2ccc(Cl)cc2)CC1)c1ccc(F)cc1 [Haloperidol]
% Avoidance Responses ± SEM [10]: 70 ± 12% | % Response Failures ± SEM [10]: 5 ± 3% | % Avoidance Responses ± SEM [11]: 45 ± 13% | % Response Failures ± SEM [11]: 14 ± 11% | % Avoidance Responses ± SEM [6]: 57 ± 6% | % Response Failures ± SEM [6]: 1 ± 0% | % Avoidance Responses ± SEM [7]: 27 ± 8% | % Response Failures ± SEM [7]: 8 ± 6% | % Avoidance Responses ± SEM [12]: 98.0 ± 1.0% | % Response Failures ± SEM (given alone, dose 0.03 (dose unit not given), measure of motor impairment): 1 ± 0% | % Avoidance Responses ± SEM (given alone, dose 0.1): 59.0 ± 13.0% | % Response Failures ± SEM (given alone, dose 0.1): 2 ± 1% | % Avoidance Responses ± SEM (given alone, dose 0.3): 10.0 ± 2.0% | % Response Failures ± SEM (given alone, dose 0.3): 25 ± 12%

Cc1cc2c(s1)Nc1ccccc1N=C2N1CCN(C)CC1 [Olanzapine, 2-methyl-4-(4-methyl-1-piperazinyl)-10H-thieno[2,3-b][1,5]benzodiazepine]
% Avoidance Responses ± SEM [6]: 66 ± 11% | % Avoidance Responses ± SEM [7]: 47 ± 12% | % Avoidance Responses ± SEM [8]: 56 ± 6% | % Avoidance Responses ± SEM [9]: 53 ± 14% | % Avoidance Responses ± SEM (first component dose 1.0 in combination with Xanomeline dose 10): 9 ± 6% | % Avoidance Responses ± SEM (given alone, dose 1): 98 ± 1% | % Avoidance Responses ± SEM (given alone, dose 3): 59 ± 16% | % Avoidance Responses ± SEM (given alone, dose 10): 2 ± 1%

Cc1nc2n(c(=O)c1CCN1CCC(c3noc4cc(F)ccc34)CC1)CCCC2 [Risperidone, 3-[2-[4-(6-fluoro-1,2-benzisoxazol-3-yl)piperidino]ethyl]-2-methyl-6,7,8,9-tetrahydro-4H-pyrido[1,2-a]pyrimidin-4-one]
% Avoidance Responses ± SEM [10]: 48 ± 8% | % Avoidance Responses ± SEM [11]: 48 ± 16% | % Avoidance Responses ± SEM [6]: 23 ± 14% | % Avoidance Responses ± SEM [7]: 8 ± 2% | % Avoidance Responses ± SEM [12]: 100 ± 0% | % Avoidance Responses ± SEM (given alone, dose 0.1): 91 ± 5% | % Avoidance Responses ± SEM (given alone, dose 0.3): 37 ± 11% | % Avoidance Responses ± SEM (given alone, dose 1): 2 ± 1%

CCCCCCOc1nsnc1C1=CCCN(C)C1 [Xanomeline, 3-(4-hexyloxy-1,2,5-thiadiazol-3-yl)-1,2,5,6-tetrahydro-1-methylpyridine]
% Avoidance Responses ± SEM [13]: 87 ± 9% and 56 ± 13% and 72 ± 13% | % Response Failures ± SEM [13]: 0 ± 0% | % Avoidance Responses ± SEM (given alone, dose 1): 98 ± 2% and 99 ± 0% | % Response Failures ± SEM (given alone, dose 1): 0 ± 0% | % Avoidance Responses ± SEM (given alone, dose 3): 93 ± 3% and 99 ± 1% | % Response Failures ± SEM (given alone, dose 3): 0 ± 0% | % Avoidance Responses ± SEM (given alone, dose 10): 44 ± 18% and 78 ± 12% and 63 ± 18% | % Response Failures ± SEM (given alone, dose 10): 2 ± 1% and 1 ± 0% | % Avoidance Responses ± SEM (given alone, dose 17.5): 11 ± 4% | % Response Failures ± SEM (given alone, dose 17.5): 2 ± 1%
